{
  "source": "patent EP0534246A2",
  "about": "“Benzylamine derivatives and medicines with antiarrhythmic activity containing them” (BASF Aktiengesellschaft, priority 1991, dated 1993)",
  "origin": "cited, not measured here",
  "biological_target": "K^+ATP-Kanal (Homo sapiens, UniProt Q14654)",
  "sequence (Q14654 whole entry)": "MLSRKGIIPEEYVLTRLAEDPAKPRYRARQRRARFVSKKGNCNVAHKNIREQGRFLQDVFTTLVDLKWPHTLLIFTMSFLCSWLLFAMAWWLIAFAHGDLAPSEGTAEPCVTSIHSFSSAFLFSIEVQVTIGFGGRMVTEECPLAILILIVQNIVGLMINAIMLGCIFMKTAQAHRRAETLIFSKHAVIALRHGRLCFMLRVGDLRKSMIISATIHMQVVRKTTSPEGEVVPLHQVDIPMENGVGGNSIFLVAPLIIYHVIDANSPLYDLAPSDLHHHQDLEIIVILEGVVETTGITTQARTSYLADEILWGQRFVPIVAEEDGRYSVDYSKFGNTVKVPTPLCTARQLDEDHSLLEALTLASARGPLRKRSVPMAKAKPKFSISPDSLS",
  "sequence (O60706 whole entry partner)": "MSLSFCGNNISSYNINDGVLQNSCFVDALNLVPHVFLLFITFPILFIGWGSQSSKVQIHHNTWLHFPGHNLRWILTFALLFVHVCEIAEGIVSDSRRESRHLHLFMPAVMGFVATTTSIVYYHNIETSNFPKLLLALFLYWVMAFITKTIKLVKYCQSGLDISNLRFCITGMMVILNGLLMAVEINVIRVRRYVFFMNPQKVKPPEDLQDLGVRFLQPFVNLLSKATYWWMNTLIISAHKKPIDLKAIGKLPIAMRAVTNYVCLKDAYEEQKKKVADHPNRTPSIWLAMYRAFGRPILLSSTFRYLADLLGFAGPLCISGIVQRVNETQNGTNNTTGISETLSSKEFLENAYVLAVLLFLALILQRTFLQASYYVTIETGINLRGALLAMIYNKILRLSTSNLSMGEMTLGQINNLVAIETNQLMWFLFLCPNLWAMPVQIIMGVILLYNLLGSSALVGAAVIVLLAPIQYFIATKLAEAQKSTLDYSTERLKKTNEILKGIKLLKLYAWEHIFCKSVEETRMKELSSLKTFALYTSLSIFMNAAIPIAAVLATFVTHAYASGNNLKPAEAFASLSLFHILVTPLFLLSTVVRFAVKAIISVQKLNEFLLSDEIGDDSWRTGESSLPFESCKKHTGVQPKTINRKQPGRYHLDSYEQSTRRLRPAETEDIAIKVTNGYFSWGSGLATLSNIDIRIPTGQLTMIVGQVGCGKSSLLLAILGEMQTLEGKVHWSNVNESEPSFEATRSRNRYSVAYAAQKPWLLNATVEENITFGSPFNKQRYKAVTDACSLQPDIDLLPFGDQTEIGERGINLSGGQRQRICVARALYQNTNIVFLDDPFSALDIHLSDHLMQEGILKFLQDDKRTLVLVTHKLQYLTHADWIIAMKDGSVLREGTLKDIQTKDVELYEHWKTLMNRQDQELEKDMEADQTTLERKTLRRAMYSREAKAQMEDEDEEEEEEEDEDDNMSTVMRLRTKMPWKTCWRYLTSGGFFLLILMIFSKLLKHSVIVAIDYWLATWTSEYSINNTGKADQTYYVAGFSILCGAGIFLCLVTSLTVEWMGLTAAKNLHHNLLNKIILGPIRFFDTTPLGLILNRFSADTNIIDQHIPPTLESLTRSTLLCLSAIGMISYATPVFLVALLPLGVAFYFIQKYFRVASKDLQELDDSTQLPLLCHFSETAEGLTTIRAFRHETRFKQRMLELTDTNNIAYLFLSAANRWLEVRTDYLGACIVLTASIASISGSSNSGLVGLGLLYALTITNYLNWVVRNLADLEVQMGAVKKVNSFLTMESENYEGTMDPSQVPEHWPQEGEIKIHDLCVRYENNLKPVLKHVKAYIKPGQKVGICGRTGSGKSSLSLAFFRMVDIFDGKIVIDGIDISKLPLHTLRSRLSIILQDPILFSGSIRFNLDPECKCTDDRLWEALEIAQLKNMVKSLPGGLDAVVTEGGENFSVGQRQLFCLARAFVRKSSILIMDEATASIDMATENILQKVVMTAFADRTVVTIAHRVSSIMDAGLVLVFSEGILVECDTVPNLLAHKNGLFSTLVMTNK",
  "conditions": "J. Mol. Cell. Cardiol. 21, Suppl. 2, S. 9, 1989",
  "data": [
    {"compound": "CCCCCC(O)CCCC(=O)O", "note": "(stereo not shown) [5-Hydroxydekanoat]", "values": [
      {"measurement": "Konzentration, bei der Wirkung gezeigt wird (Blocker des ATP-abhängigen K+-Kanals)", "result": "ca. 100 um"}
    ]}
  ]
}
